In US9718823B2, “2, 6-Di-nitrogen-containing substituted purine derivative, and preparation method, pharmaceutical composition and use thereof” (Zhejiang Medicine Co., Ltd. Xinchang Pharmaceutical Factory, priority 2013, dated 2017):

Columns and labels:
PDGFR β enzyme = molecular target: T1, PDGFR β enzyme (Homo sapiens, UniProt P09619); experiment: Inhibitory activity to PDGFR β enzyme, HTRF kinEASE TK kit; assay type: biochemical; details: for inhibition at 1 µM / inhibition at 10 µM: read-out: Inhibition rate % (PDGFR β)
T1 construct: purchased Invitrogen P3082
Protocol: HTRF kinEASE TK (Cat.62TK0PEC, Cisbio)
PDGFR β enzyme (Cat.P3082, Invitrogen)
1 mL 1×Kinase Buffer includes 200 μL 5×Enzyme buffer, 5 μL 1M MgCl2, 1 μL 1M DTT, 1 μL 1M MnCl2, 20 μL 2500 nM SEB, 773 μL ddH2O.
TK-Substrate and ATP are diluted to 2.5 times of reaction concentration with 1×PDGFR β Kinase Buffer.
5×PDGFR β enzyme working solution is prepared with 1×PDGFR β kinase buffer.
4×Sa-XL665 working solution is prepared with Detection Buffer.
TK-Ab-Cryptate is diluted 100 times with Detection Buffer to use as working solution.

[1] = tested on: PC-3 cell Akt (Ser473) phosphorylation; experiment: Inhibition of phosphorylation level of PC-3 cell Akt (Ser473), Cisbio HTRF phospho Akt (Ser473) cell-based assay; set-up: species or system human; details: Homo sapiens, PC-3, PC-3 cells, hEGF 100 ng/ml stimulation; 1st and 2nd test where printed
Protocol: The inhibitory activity of the compounds of present invention to the phosphorylation level of PC-3 cell Akt (Ser473) is studied by using Cisbio HTRF phospho Akt (Ser473) cell-based assay test kit.
Cell strain: PC-3 prostate cancer cells line (cell bank of Chinese Academy of Sciences) is cultured by using culture medium (F12K+10% FBS).
hEGF is prepared as stock solution of 100 ug/ml with 10 mM acetic acid, and the stock solution is diluted to 200 ng/ml with serum-free medium, added 50 ul to each well to be stimulated.
b) Preparation of Complete Lysate • 4×Lysis Buffer is diluted 4 times with ddH2O to prepare 1×Lysis Buffer. • 100×Blocking Reagent is diluted 100 times with 1×Lysis Buffer.
c) Preparation of Detection Liquid • 20×Anti-Phospho-Akt is diluted 20 times with Detection Buffer. • 20×Anti-Akt is diluted 20 times with Detection Buffer.
The compounds are diluted with DMSO, and the working concentration of compounds is 100 times of detection concentration.
Cells in logarithmic growth phase are collected, counted, and resuspended with complete culture medium;
The cell concentration is adjusted to appropriate concentration, and cell suspension is inoculated into 96 well plates at 50 μl per well;
Cells are incubated for more than 4 h in the 5% CO2 incubator at temperature of 37° C., relative humidity of 100%;
Cell plate is removed from the incubator. The cell suspension is aspirated gently, and 50 ul serum-free F12K medium is quickly added, then the cell plate is placed into the incubator to culture overnight.
The compounds are diluted in a linear gradient with DMSO.
0.5 ul compounds is added into the test well, mixed on oscillators, and incubated at room temperature for 2 hours.
Proportioned hEGF solution is added to test well at 50 μl per well, and the final concentration is 100 ng/ml. serum-free medium is added into The negative control well at 50 μl per well.
The solution is mixed on oscillator and incubated at room temperature for 2 hours.
The liquid in 96 well plates is aspirated by multichannel pipette or the supernatant is discarded gently. The proportioned complete lysate is added quickly at 50 μl per well.
The solution is mixed on oscillator and lysed at room temperature for 30 min.
16 μl cell lysate is transferred from the 96 well plates to white low volume 384 well plates, and the proportioned two pairs of detection antibody are added. The solution is mixed on oscillator, and incubated at room temperature for 4 hours to detect the readings.

PI3 K γ = molecular target: T2, PI3 K γ (Homo sapiens, UniProt P48736); experiment: Inhibitory activity to PI3K γ, PI 3-Kinase (human) HTRF Assay kit; assay type: biochemical; details: for inhibition at 1 µM / inhibition at 10 µM: read-out: Inhibition rate % to PI3 K γ
T2 construct: purchased Biology, Medicilon
Description: (§1) Study on the inhibitory activity of the compounds of present invention to PI 3κα, PI3κδ and PI3κγ. Two or three concentrations of the compounds are selected to preliminary screening to calculate respectively the activity inhibition rate of the compounds of corresponding concentrations to enzyme, then the compounds with better activity are selected by preliminary screening for IC50 test.
(§2) PI 3-Kinase (human) HTRF™ Assay kit (Cat.33-017, Millipore)
PI 3k γ (Biology, Medicilon)
(§3) 4× Reaction Buffer (Cat.33-002, Millipore) is diluted with ddH2O to 1.33×, and 1M DTT is added to make the final concentration as 6.67 mM. For example, 10 μL DTT is added into 500 μL 4× Reaction Buffer, and water is added to 1.5 mL.
(§4) The Test compounds are dissolved with DMSO to 1 mM as storage liquid. 2 μL of each of storage liquid is added into 48 μL ddH2O, to obtain the 40 μM compounds solution containing 4% DMSO. After mixing, 3 μL of each of the solution is added into 27 μL 4% DMSO (in ddH2O) to obtain the 4 μM compounds solution. 5 μL of each dilute solution is added into 384-well plates, then the final concentration of the compounds in the 20 μL final kinase reaction system is 10 μM and 1 μM respectively contained 1% DMSO. The dilution methods of compounds are similar to the preliminary screening in IC50 test.
(§5) 2×PIP2 working fluid is prepared with 1.33× reaction buffer to the final concentration of 20 μM.
The screening concentration of PI 3k γ kinase: 80 ng/well,
(§6) Kinase is diluted with 2×PIP2 operating fluid, the concentration of kinase operating fluid is 2 times of screening concentration.
(§7) 10 mM ATP is diluted with 1.33× reaction buffer to 400 μM. The concentration of ATP is 100 μM in 20 μL kinase reaction system.
(§8) Stop A and Stop B are mixed according to the proportion of 3:1, and are placed for 2 hours at room temperature to obtain the stop solution available.
(§9) DM C, DM A and DM B are mixed according to the proportion of 18:1:1, and are placed for 2 hours at room temperature to obtain the detection solution available.

PI3Kδ = molecular target: T3, PI3Kδ (Homo sapiens, UniProt O00329); experiment: Inhibitory activity to PI3K δ, PI 3-Kinase (human) HTRF Assay kit; assay type: biochemical; details: for inhibition at 1 µM / inhibition at 10 µM: read-out: Inhibition rate % to PI3Kδ
T3 construct: purchased Millipore 14-604
Protocol: Study on the inhibitory activity of the compounds of present invention to PI 3κα, PI3κδ and PI3κγ.
as §2
For example, 10 μL DTT is added into 500 μL 4× Reaction Buffer, and water is added to 1.5 mL.
The Test compounds are dissolved with DMSO to 1 mM as storage liquid. 2 μL of each of storage liquid is added into 48 μL ddH2O, to obtain the 40 μM compounds solution containing 4% DMSO. After mixing, 3 μL of each of the solution is added into 27 μL 4% DMSO (in ddH2O) to obtain the 4 μM compounds solution. […]
The screening concentration of PI 3k δ kinase: 2 ng/well,
as §6
The concentration of ATP is 100 μM in 20 μL kinase reaction system.
as §8, §9

PI3K α = molecular target: T4, PI3K α (Homo sapiens, UniProt P42336); experiment: Inhibitory activity to PI3K α, PI 3-Kinase (human) HTRF Assay kit; assay type: biochemical; details: read-out: % Inhibition Rate to PI3K α
T4 construct: purchased Millipore 14-602
Description: as §1, §2
PI 3k α (Cat.14-602, Millipore)
as §3, §4, §5
The screening concentration of PI 3k α kinase: 8 ng/well,
as §6, §7, §8, §9

T4 sequence (P42336 whole entry): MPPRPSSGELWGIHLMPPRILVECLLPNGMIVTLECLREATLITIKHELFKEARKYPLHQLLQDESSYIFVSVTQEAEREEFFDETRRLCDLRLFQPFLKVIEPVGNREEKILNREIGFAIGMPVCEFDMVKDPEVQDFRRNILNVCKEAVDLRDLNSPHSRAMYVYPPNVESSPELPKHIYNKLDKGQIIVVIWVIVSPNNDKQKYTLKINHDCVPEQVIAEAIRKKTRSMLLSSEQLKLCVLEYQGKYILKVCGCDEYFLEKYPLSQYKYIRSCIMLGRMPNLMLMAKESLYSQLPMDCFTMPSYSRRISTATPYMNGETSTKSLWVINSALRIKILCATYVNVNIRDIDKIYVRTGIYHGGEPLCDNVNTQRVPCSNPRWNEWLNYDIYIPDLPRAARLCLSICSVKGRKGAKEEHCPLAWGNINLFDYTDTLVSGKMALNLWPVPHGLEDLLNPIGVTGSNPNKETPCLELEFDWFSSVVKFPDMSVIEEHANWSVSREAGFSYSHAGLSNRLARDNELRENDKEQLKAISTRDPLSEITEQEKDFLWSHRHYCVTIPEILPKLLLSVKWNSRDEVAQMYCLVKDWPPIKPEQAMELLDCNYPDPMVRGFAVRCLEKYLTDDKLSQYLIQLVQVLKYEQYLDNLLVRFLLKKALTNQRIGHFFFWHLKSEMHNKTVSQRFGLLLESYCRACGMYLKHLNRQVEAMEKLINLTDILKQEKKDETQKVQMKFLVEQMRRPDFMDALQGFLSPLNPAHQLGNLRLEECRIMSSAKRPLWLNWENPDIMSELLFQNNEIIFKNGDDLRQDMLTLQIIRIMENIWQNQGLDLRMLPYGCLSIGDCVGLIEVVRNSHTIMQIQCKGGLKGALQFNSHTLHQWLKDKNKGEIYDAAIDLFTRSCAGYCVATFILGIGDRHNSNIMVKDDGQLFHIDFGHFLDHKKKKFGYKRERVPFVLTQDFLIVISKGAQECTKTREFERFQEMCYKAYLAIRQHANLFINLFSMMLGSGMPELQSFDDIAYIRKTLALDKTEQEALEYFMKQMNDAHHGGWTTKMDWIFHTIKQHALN
T4 sequence (P27986 whole entry partner): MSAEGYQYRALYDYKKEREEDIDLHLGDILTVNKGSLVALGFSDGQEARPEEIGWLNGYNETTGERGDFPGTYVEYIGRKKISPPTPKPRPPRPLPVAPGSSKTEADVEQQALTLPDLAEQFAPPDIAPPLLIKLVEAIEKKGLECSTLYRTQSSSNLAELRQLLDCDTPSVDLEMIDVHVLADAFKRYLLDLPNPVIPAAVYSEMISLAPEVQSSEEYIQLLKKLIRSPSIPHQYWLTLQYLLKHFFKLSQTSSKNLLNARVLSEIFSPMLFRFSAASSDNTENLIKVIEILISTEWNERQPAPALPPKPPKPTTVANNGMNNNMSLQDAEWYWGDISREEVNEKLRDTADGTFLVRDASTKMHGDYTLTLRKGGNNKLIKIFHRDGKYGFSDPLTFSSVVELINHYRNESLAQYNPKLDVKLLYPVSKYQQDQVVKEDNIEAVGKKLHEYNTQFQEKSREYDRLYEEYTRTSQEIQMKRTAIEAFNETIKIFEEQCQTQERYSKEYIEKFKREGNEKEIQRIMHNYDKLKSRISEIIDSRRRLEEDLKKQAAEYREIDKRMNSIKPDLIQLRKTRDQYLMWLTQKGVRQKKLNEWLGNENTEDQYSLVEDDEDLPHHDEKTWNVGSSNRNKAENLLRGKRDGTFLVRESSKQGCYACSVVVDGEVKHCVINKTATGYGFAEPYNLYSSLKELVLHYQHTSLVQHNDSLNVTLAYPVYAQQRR
T3 sequence (O00329 whole entry): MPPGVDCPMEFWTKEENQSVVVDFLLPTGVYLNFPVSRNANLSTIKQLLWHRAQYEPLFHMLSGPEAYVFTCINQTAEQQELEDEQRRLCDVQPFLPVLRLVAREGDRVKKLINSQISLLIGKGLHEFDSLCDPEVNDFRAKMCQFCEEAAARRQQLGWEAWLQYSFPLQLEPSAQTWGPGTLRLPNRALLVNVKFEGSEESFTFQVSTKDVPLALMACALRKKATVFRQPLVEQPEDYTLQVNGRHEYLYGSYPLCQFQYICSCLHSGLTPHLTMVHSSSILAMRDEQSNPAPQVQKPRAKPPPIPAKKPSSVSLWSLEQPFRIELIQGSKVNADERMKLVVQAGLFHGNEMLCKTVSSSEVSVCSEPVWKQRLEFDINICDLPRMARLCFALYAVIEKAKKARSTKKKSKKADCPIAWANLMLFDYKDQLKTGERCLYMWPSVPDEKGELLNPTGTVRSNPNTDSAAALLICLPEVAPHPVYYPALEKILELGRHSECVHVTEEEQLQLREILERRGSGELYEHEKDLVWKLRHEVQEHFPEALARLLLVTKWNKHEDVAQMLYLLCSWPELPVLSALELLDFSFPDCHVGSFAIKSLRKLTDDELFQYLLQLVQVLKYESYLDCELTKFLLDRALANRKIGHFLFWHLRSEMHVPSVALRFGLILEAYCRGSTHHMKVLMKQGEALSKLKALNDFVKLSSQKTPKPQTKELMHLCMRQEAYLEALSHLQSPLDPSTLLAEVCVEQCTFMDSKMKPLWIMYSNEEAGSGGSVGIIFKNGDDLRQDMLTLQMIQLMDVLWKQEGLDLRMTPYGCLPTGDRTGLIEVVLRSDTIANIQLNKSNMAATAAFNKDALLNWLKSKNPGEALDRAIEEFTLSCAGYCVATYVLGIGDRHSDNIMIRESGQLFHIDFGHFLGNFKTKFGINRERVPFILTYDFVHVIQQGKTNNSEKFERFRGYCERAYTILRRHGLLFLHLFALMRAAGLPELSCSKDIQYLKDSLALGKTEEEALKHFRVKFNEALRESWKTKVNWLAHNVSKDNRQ
T3 sequence (P27986 whole entry partner): as the sequence (P27986 whole entry partner) above
T1 sequence (P09619 33-1106): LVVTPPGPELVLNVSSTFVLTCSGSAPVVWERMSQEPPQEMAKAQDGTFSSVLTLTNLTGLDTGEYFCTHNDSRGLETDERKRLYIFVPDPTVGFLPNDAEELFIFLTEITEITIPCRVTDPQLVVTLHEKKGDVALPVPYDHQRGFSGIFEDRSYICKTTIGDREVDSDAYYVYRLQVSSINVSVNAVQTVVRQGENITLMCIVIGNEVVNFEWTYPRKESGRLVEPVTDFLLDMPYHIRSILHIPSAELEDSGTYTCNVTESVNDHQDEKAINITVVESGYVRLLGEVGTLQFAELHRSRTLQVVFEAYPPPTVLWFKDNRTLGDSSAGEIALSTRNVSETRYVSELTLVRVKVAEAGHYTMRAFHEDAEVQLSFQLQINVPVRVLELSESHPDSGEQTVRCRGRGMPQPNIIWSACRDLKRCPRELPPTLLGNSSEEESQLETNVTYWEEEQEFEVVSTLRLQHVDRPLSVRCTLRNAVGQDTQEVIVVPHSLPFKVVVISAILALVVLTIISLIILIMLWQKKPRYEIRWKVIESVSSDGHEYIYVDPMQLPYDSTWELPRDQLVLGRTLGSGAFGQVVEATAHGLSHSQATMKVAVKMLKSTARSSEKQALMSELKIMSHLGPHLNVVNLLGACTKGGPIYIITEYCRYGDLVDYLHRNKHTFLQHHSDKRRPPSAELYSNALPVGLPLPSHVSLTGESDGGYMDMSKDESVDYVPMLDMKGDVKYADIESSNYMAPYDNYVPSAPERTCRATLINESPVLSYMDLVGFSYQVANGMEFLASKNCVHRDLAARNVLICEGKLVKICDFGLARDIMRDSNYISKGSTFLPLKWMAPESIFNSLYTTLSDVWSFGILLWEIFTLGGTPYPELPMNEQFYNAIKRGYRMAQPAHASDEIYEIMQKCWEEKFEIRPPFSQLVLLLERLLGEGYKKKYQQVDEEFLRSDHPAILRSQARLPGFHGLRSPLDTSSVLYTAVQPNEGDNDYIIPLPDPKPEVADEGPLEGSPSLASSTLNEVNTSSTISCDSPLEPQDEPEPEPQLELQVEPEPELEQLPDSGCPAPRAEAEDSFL
T2 sequence (P48736 whole entry): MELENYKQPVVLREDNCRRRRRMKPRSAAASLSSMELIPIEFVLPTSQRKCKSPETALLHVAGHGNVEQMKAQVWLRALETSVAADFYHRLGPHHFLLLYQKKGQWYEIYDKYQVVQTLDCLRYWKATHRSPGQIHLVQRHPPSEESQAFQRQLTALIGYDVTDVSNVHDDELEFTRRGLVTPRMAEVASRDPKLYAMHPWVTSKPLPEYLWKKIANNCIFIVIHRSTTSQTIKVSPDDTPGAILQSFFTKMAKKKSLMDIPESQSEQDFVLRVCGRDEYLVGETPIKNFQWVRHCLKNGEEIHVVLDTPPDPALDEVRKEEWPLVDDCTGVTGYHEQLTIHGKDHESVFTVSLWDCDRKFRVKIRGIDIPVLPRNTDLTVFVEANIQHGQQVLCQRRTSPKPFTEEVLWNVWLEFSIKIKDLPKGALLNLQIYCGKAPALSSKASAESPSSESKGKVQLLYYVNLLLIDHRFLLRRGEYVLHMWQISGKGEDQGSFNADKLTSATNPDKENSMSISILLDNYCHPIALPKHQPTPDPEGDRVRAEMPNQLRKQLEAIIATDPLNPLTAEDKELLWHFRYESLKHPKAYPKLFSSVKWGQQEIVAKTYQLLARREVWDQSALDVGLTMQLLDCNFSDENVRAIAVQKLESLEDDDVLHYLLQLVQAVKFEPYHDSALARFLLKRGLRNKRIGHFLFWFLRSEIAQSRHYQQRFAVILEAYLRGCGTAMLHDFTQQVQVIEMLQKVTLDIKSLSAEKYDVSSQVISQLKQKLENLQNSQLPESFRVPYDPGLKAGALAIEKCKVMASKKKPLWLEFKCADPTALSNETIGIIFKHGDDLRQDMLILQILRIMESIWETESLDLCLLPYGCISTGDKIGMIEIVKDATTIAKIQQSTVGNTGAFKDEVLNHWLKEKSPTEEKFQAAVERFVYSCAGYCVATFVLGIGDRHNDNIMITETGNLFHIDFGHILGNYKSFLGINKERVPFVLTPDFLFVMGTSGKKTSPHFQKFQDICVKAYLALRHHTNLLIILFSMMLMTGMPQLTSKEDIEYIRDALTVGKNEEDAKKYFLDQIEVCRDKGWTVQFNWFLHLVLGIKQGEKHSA

Row | Structure (SMILES) | Inhibition rate % (PDGFR β) (PDGFR β enzyme; 1 μM) | Inhibition rate % (PDGFR β) (PDGFR β enzyme; 10 μM) | IC50 [1] | Inhibition rate % to PI3 K γ (PI3 K γ; 1 μM) | Inhibition rate % to PI3 K γ (PI3 K γ; 10 μM) | Inhibition rate % to PI3Kδ (PI3Kδ; 1 μM (Table 7), 1 µM) | Inhibition rate % to PI3Kδ (PI3Kδ; 10 μM (Table 7), 10 µM) | inhibition at 1 µM (PDGFR β enzyme; 1 μM) | inhibition at 10 µM (PDGFR β enzyme; 10 μM) | inhibition at 1 µM (PI3 K γ; 1 μM) | inhibition at 10 µM (PI3 K γ; 10 μM) | inhibition at 1 µM (PI3Kδ; 1 μM (Table 7)) | inhibition at 10 µM (PI3Kδ; 10 μM (Table 7)) | inhibition at 1 µM (PI3K α) | inhibition at 10 µM (PI3K α)
1 | c1ccc(-c2ccnc3ccc(Nc4nc(NC5CC5)c5nc[nH]c5n4)cc23)cc1 [MED1007-31, N6-cyclopropyl-N2-(4-phenylquinoline-6-yl)-9H-purine-2,6 diamine] | 13.84% | 26.16% | 112 nM | 11.33% | 52.59% | 40.16% | 97.80% |  |  |  |  |  |  |  | 
2 | COc1ccccc1-c1ccnc2ccc(Nc3nc(NC4CC4)c4nc[nH]c4n3)cc12 [MED1007-86, N6-cyclopropyl-N2-(4-(2-methoxyphenyl)quinoline-6-yl)-9H-purine-2,6-diamine] |  |  |  |  |  |  |  | -5.49% | -3.13% | 8.35% | 23.1% | 27.3% | 66.4% | 19.2% | 39.6%
3 | CSc1ccccc1-c1ccnc2ccc(Nc3nc(NC4CC4)c4nc[nH]c4n3)cc12 [MED1007-87, N6-cyclopropyl-N2-(4-(2-(methylthio)phenyl)quinoline-6-yl)-9H-purine-2,6-diamine] |  |  |  |  |  |  |  | -7.6% | -4.13% | -3.76% | 29.5% | 23% | 80% | 13.8% | 60.6%
4 | c1ccc(-c2ccnc3ccc(Nc4nc(NCC5CCCC5)c5nc[nH]c5n4)cc23)cc1 [MED1007-99, N6-(cyclopentylmethyl)-N2-(4-phenylquinoline-6-yl)-9H-purine-2,6-diamine] |  |  |  |  |  |  |  | 33.1% | 9.88% | 4.68% | 39.9% | 7.67% | 88.1% | 23.3% | 88.3%
5 | c1ccc(-c2ccnc3ccc(Nc4nc(N5CCCC5)c5nc[nH]c5n4)cc23)cc1 [MED1007-103, 4-phenyl-N-(6-(pyrrolidine-1-yl)-9H-purine-2-yl)quinoline-6-amine] |  |  | 276 nM |  |  |  |  |  |  |  |  | 68% | 87.5% | 55.3% | 82.2%

Further lines, results first:

Row | Inhibition rate % (PDGFR β) (PDGFR β enzyme; 1 μM) | Inhibition rate % (PDGFR β) (PDGFR β enzyme; 10 μM) | IC50 [1] | Inhibition rate % to PI3 K γ (PI3 K γ; 1 μM) | Inhibition rate % to PI3 K γ (PI3 K γ; 10 μM) | Inhibition rate % to PI3Kδ (PI3Kδ; 1 μM (Table 7), 1 µM) | Inhibition rate % to PI3Kδ (PI3Kδ; 10 μM (Table 7), 10 µM) | inhibition at 1 µM (PDGFR β enzyme; 1 μM) | inhibition at 10 µM (PDGFR β enzyme; 10 μM) | inhibition at 1 µM (PI3 K γ; 1 μM) | inhibition at 10 µM (PI3 K γ; 10 μM) | inhibition at 1 µM (PI3Kδ; 1 μM (Table 7)) | inhibition at 10 µM (PI3Kδ; 10 μM (Table 7)) | inhibition at 1 µM (PI3K α) | inhibition at 10 µM (PI3K α) | Structure (SMILES)
6 |  |  | 74.5 nM |  |  |  |  | 54.8% | 99% | 19.2% | 53% | 44.4% | 87.4% |  |  | c1cnc2ccc(Nc3nc(OC4CCCC4)c4nc[nH]c4n3)cc2c1 [MED1007-35, N-(6-cyclopentyloxy-9H-purine-2-yl) quinoline-6-amine]
7 |  |  | 62.2 nM |  |  |  |  | -0.31% | 28% | 0.96% | 14.7% | 37.5% | 122% |  |  | COc1ccc(-c2ccnc3ccc(Nc4nc(NC5CC5)c5nc[nH]c5n4)cc23)cc1 [MED1007-63, N6-cyclopropyl-N2-(4-(4-methoxyphenyl)quinoline-6-yl)-9H-purine-2,6-diamine]
8 |  |  |  |  |  |  |  | -5.37% | 2.89% | 7.02% | 41.5% | 31% | 103% | 46.2% | 110% | CSc1cccc(-c2ccnc3ccc(Nc4nc(NC5CC5)c5nc[nH]c5n4)cc23)c1 [MED1007-88, N6-cyclopropyl-N2-(4-(3-(methylthio)phenyl)quinoline-6-yl)-9H-purine-2,6-diamine]
9 |  |  |  |  |  |  |  | 98.4% | 99.5% | 74.7% | 77% | 72.3% | 88.5% | 56.3% | 114% | c1cnc2ccc(Nc3nc(OC4CCC4)c4nc[nH]c4n3)cc2c1 [MED1007-97]
10 |  |  |  |  |  |  |  | 38.1% | 37.8% | 32.8% | 105% | 71.1% | 105% | 102% | 118% | c1ccc(-c2ccnc3ccc(Nc4nc(OC5CCC5)c5nc[nH]c5n4)cc23)cc1 [MED1007-98]
